Holding throughout (assay): relative viability (nuclei count vs DMSO), 5 days (fraction); higher = more cells survive
Compound in test [1]: CC1=CC=C(C=C1)C(=O)CN2C3=C(CCCC3)SC2=N [Pifithrin_alpha] + CCNC(=O)c1noc(-c2cc(C(C)C)c(O)cc2O)c1-c1ccc(CN2CCOCC2)cc1 [Luminespib] (partner 0.01 µM)
A digest of the protocol:
(§1)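 Cells from lung cancer lines were seeded into 1536-well plates and, one day later, dosed by pin tool. Treatments were either a single drug or a fixed dose of an anchor drug with five library-drug doses (not always all listed) in √10 steps. After 5 days, nuclei were stained in a one-step fixation (final 0.05% Triton X-100, 1% formaldehyde, 1 ug/ml Hoechst) and counted on 4× images, and relative viability is the treated-to-vehicle nuclei ratio, as the median of duplicate plates.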

Compound in test [2]: Nc1nc(Nc2ccc3c(c2)CC[C@@H](N2CCCC2)CC3)nn1-c1cc2c(nn1)-c1ccccc1CCC2 [Bemcentinib] + CC(C)C[C@H](NC(=O)[C@H](Cc1ccccc1)NC(=O)c1cnccn1)B(O)O [Bortezomib] (partner 0.002 µM)
Summed up: as §1

Compound in test [3]: CNC(=O)c1ccccc1Sc1ccc2c(/C=C/c3ccccn3)n[nH]c2c1 [Axitinib] + Nc1ncn([C@H]2C[C@H](O)[C@@H](CO)O2)c(=O)n1 [Decitabine] (partner 2 µM)
Summed up: as §1

Compound in test [4]: CNC(=O)c1ccccc1Sc1ccc2c(/C=C/c3ccccn3)n[nH]c2c1 [Axitinib] + O=C(CCCCCCC(=O)Nc1ccccc1)NO [Vorinostat] (partner 1 µM)
A digest of the protocol:
as §1

As for PC-3 [JPC-3], the relative viability in test [1] (first compound 1 µM) stood at 0.74; in test [1] (first compound 3.162 µM), 0.779; in test [1] (first compound 10 µM), 0.63; in test [1] (first compound 31.62 µM), 0.635; in test [1] (first compound 100 µM), 0.587; in test [2] (first compound 0.04 µM), 0.803. Also, the relative viability in test [2] (first compound 0.1265 µM) was determined as 0.948; in test [2] (first compound 0.4 µM) it was 0.8; in test [2] (first compound 1.265 µM), 0.906; in test [2] (first compound 4 µM), 0.869; in test [3] (first compound 0.005 µM) it was 0.865; in test [3] (first compound 0.05 µM), 0.826. In addition, the relative viability is 0.889 in test [3] (first compound 0.1581 µM); 0.824 in test [3] (first compound 0.5 µM); 0.787 in test [4] (first compound 0.005 µM); 0.94 in test [4] (first compound 0.05 µM); 0.758 in test [4] (first compound 0.1581 µM); 0.857 in test [4] (first compound 0.5 µM).
Regarding PC-14, the relative viability in test [1] (first compound 1 µM) was 0.134; in test [1] (first compound 3.162 µM), 0.147; in test [1] (first compound 10 µM), 0.149; in test [1] (first compound 31.62 µM), 0.0887; in test [1] (first compound 100 µM) it was 0.0663; in test [2] (first compound 0.04 µM), 0.86. The relative viability in test [2] (first compound 0.1265 µM) amounted to 0.849; in test [2] (first compound 0.4 µM), 0.934; in test [2] (first compound 1.265 µM) it was 0.911; in test [2] (first compound 4 µM), 1; in test [3] (first compound 0.005 µM), 0.239; in test [3] (first compound 0.01581 µM) it was 0.219. Moreover, the relative viability came to 0.231 in test [3] (first compound 0.05 µM); 0.203 in test [3] (first compound 0.1581 µM); 0.194 in test [3] (first compound 0.5 µM); 0.792 in test [4] (first compound 0.005 µM); 0.336 in test [4] (first compound 0.01581 µM); 0.702 in test [4] (first compound 0.05 µM). Also, the results for the relative viability in test [4] (first compound 0.1581 µM) and in test [4] (first compound 0.5 µM) were 0.643 and 1.06, respectively.
RERF-LC-KJ: the relative viability in test [1] (first compound 1 µM) is 1.3; in test [1] (first compound 3.162 µM), 1.25; in test [1] (first compound 10 µM) it was 0.959; in test [1] (first compound 31.62 µM) it was 0.512; in test [1] (first compound 100 µM) it was 0.44; in test [2] (first compound 0.04 µM), 1.1. In addition, the relative viability turned out to be 1.29 in test [2] (first compound 0.1265 µM); 1.3 in test [2] (first compound 0.4 µM); 1.21 in test [2] (first compound 1.265 µM); 1.09 in test [2] (first compound 4 µM); 0.663 in test [3] (first compound 0.005 µM); 0.694 in test [3] (first compound 0.01581 µM). For the same cell line, the relative viability is 0.67 in test [3] (first compound 0.05 µM); 0.596 in test [3] (first compound 0.1581 µM); 0.738 in test [3] (first compound 0.5 µM); 0.703 in test [4] (first compound 0.005 µM); 0.648 in test [4] (first compound 0.01581 µM); 0.725 in test [4] (first compound 0.05 µM). For the same cell line, the results for the relative viability in test [4] (first compound 0.1581 µM) and in test [4] (first compound 0.5 µM) were 0.705 and 0.803, respectively.
On to SK-LU-1, for which the relative viability in test [1] (first compound 1 µM) is 0.216; in test [1] (first compound 3.162 µM) it was 0.188; in test [1] (first compound 10 µM), 0.213; in test [1] (first compound 100 µM), 0.165; in test [2] (first compound 0.04 µM), 1.02; in test [2] (first compound 0.1265 µM), 1.35. Moreover, the relative viability in test [2] (first compound 0.4 µM) stood at 1.38; in test [2] (first compound 1.265 µM) it was 1.3; in test [2] (first compound 4 µM), 1.25; in test [3] (first compound 0.005 µM), 0.64; in test [3] (first compound 0.01581 µM) it was 0.726; in test [3] (first compound 0.05 µM) it was 0.618. The relative viability in test [3] (first compound 0.1581 µM) is 0.582; in test [3] (first compound 0.5 µM), 0.598; in test [4] (first compound 0.005 µM), 0.805; in test [4] (first compound 0.01581 µM), 0.835; in test [4] (first compound 0.05 µM) it was 0.808; in test [4] (first compound 0.1581 µM) it was 0.817. Besides, the relative viability in test [4] (first compound 0.5 µM) is 0.959.
Turning to SW 1573, the relative viability in test [1] (first compound 1 µM) was found to be 0.245; in test [1] (first compound 3.162 µM), 0.214; in test [1] (first compound 10 µM) it was 0.188; in test [1] (first compound 100 µM) it was 0.175; in test [2] (first compound 0.04 µM) it was 1.09; in test [2] (first compound 0.1265 µM), 0.973. The relative viability in test [2] (first compound 0.4 µM) was found to be 1.14; in test [2] (first compound 1.265 µM), 0.97; in test [2] (first compound 4 µM), 1.15; in test [3] (first compound 0.005 µM), 0.546; in test [3] (first compound 0.01581 µM), 0.544; in test [3] (first compound 0.05 µM), 0.579. For the same cell line, the relative viability worked out at 0.445 in test [3] (first compound 0.1581 µM); 0.617 in test [3] (first compound 0.5 µM); 0.735 in test [4] (first compound 0.005 µM); 0.789 in test [4] (first compound 0.01581 µM); 0.985 in test [4] (first compound 0.05 µM); 0.741 in test [4] (first compound 0.1581 µM). Moreover, in test [4] (first compound 0.5 µM), the relative viability was determined as 0.783.
Consider UMC-11, for which the relative viability came out at 0.98 in test [1] (first compound 1 µM); 1.22 in test [1] (first compound 3.162 µM); 1.36 in test [1] (first compound 10 µM); 1.08 in test [1] (first compound 31.62 µM); 1.48 in test [1] (first compound 100 µM); 0.413 in test [2] (first compound 0.04 µM). Besides, the relative viability amounted to 0.771 in test [2] (first compound 0.1265 µM); 0.724 in test [2] (first compound 0.4 µM); 0.428 in test [2] (first compound 1.265 µM); 0.682 in test [2] (first compound 4 µM); 0.597 in test [3] (first compound 0.005 µM); 0.577 in test [3] (first compound 0.01581 µM). In addition, the relative viability amounted to 0.577 in test [3] (first compound 0.05 µM); 0.615 in test [3] (first compound 0.1581 µM); 0.553 in test [3] (first compound 0.5 µM); 0.323 in test [4] (first compound 0.005 µM); 0.339 in test [4] (first compound 0.01581 µM); 0.401 in test [4] (first compound 0.05 µM). The results for the relative viability in test [4] (first compound 0.1581 µM) and in test [4] (first compound 0.5 µM) were 0.408 and 0.36, respectively.

The record behind these values is the supplement of paper PMC10307832.
